Patent US9382426B2, “Water-insoluble coloring compound, ink, thermal transfer recording sheet, and color filter resist composition” (CANON KABUSHIKI KAISHA, priority 2012, dated 2016)

Columns and labels:
Format in all cases: physicochemical
[1] = Light resistance evaluation of compound: ink image samples on paper, xenon tester; set-up: key to Light resistance ΔE (color difference): ΔE = Euclidean distance of L*a*b* before vs after exposure; settings: ink image sample on paper; xenon tester 10 hours, 0.39 W/m^2 at 340 nm, 40° C., relative humidity 60%
Protocol: Ink (1) of the present invention was prepared by mixing 5 parts of Compound (1) as the water-insoluble coloring compound of the present invention, 350 parts of toluene, 350 parts of ethyl acetate, and 300 parts of 2-butanone.
Inks (1), (2), (4), (8), (13), (15), (23), (28), (29), and (30) and Comparative Inks (1) and (2) were each applied onto paper for contrast ratio measurement by bar coating (Bar No. 10) and were air-dried overnight to produce image samples. Chromaticity values (L*, a*, b*) in the L*a*b* color system of each image sample were measured with a reflection densitometer SpectroLino (manufactured by Gretag Macbeth AG).
(§1) Each of the image samples produced in the chromaticity measurement was charged in a xenon tester (Atlas Ci4000, manufactured by Suga Test Instruments Co., Ltd.) and was subjected to exposure conditions (irradiance: 0.39 W/m^2 at 340 nm, temperature: 40° C., relative humidity: 60%) for 10 hours. The reflection densities of printed matters were measured before and after the test. The color difference (ΔE) was calculated from the initial chromaticity values a0*, b0*, L0* and the chromaticity values a*, b*, L after the exposure by the following expression: ΔE=√{square root over ((a*−a0*)^2+(b*−b0*)^2+(L*−L0*)^2)} [Math. 1] The evaluation criteria are as follows: • A: ΔE<3.50 • B: 3.50≦ΔE<5.00 • C: 5.00≦ΔE

[2] = Evaluation of light resistance of color filters, xenon tester; settings: color filter containing the compound; xenon tester 50 hours, 0.39 W/m^2 at 340 nm, 40° C., relative humidity 60%
Protocol: Ink (11) of the present invention was prepared by mixing 12 parts of Compound (1) as the water-insoluble coloring compound of the present invention and 120 parts of cyclohexanone and dispersing the mixture with an attritor (manufactured by Mitsui Mining Co., Ltd.) for 1 hour.
Twenty-two parts of Ink (11) was slowly added to a solution of 6.7 parts of an acrylic copolymer composition (weight average molecular weight Mw: 10000) composed of, as a monomer ratio, 40% by mass of n-butyl methacrylate, 30% by mass of acrylic acid, and 30% by mass of hydroxyethyl methacrylate, 1.3 parts of dipentaerythritol pentaacrylate, and 0.4 parts of 2-benzyl-2-dimethylamino-1-(4-morpholinophenyl)-butanone (photopolymerization initiator) in 96 parts of cyclohexanone, followed by stirring at room temperature for 3 hours. The reaction solution was filtered through a filter of 1.5 μm pore size to yield color filter yellow resist composition (1) of the present invention.
Color filter yellow resist composition (1) was spin-coated on a glass substrate and was then dried at 90° C. for 3 min, and the entire surface was then exposed to light and post-cured at 180° C. to produce color filter (1).
as §1, with “the resulting color filters and” for “the image samples produced in”, “the thermal transfer recording sheets” for “the chromaticity measurement”, “for 50” for “for 10”, “b*, L*” for “b*, L”, “[Math. 2]” for “[Math. 1]”

[3] = Evaluation of light resistance of thermal transfer recording sheets, xenon tester; settings: thermal transfer recording sheet containing the compound; xenon tester 50 hours, 0.39 W/m^2 at 340 nm, 40° C., relative humidity 60%
Protocol: Ink (14) of the present invention was prepared by gradually adding 5 parts of a polyvinyl butyral resin (Denka 3000-K, manufactured by Denki Kagaku Kogyo K.K.) to a solution of 13.5 parts of Compound (4), as the water-insoluble coloring compound of the present invention, in a mixture of 45 parts of methyl ethyl ketone and 45 parts of toluene with stirring.
Ink (14) was applied onto a polyethylene terephthalate film (Lumirror, manufactured by Toray Industries, Inc.) having a thickness of 4.5 μm so as to have a dried thickness of 1 μm and was dried to produce thermal transfer recording sheet (4).
as §1, with “the resulting color filters and” for “the image samples produced in”, “the thermal transfer recording sheets” for “the chromaticity measurement”, “for 50” for “for 10”, “b*, L*” for “b*, L”, “[Math. 2]” for “[Math. 1]”

SMILES | Light resistance ΔE (color difference) [1] | Light resistance ΔE, evaluation grade [1] | Light resistance ΔE (color difference) [2] | Light resistance ΔE, evaluation grade [2] | Light resistance ΔE (color difference) [3] | Light resistance ΔE, evaluation grade [3]
Cc1c(/N=N/c2ccccc2)c(O)n(N)c(=O)c1C#N [Comparative Compound (1), reference compound] | 10.6 | C (C: 5.00≦ΔE) | 12.8 | C (C: 5.00≦ΔE) | 15.1 | C (C: 5.00≦ΔE)
CCCCC(CC)CN(CC(CC)CCCC)C(=O)c1ccccc1/N=N/c1c(C)c(C#N)c(=O)n(N)c1O (stereo not drawn) [Compound (1)] | 3.64 | B (B: 3.50≦ΔE<5.00) | 2.99 | A (A: ΔE<3.50) |  | 
CCCCC(CC)CN(CC(CC)CCCC)C(=O)c1cccc(/N=N/c2c(C)c(C#N)c(=O)n(N)c2O)c1 (stereo not drawn) [Compound (4)] | 1.70 | A (A: ΔE<3.50) |  |  | 2.76 | A (A: ΔE<3.50)
CCCCC(CC)CN(CC(CC)CCCC)C(=O)c1ccc(/N=N/c2c(-c3ccccc3)c(C#N)c(=O)n(NC(=O)c3ccccc3)c2O)cc1 (stereo not drawn) [Compound (8)] | 2.81 | A (A: ΔE<3.50) | 2.68 | A (A: ΔE<3.50) |  | 
CCCCC(CC)CN(CC(CC)CCCC)C(=O)c1cccc(/N=N/c2c(C)c(C#N)c(=O)n(N(C)C)c2O)c1 (stereo not drawn) [Compound (13)] | 3.98 | B (B: 3.50≦ΔE<5.00) |  |  | 3.37 | A (A: ΔE<3.50)
CCCCC(CC)CN(CC(CC)CCCC)C(=O)c1cccc(/N=N/c2c(C)c(C#N)c(=O)n(NC(=O)C(CC)CCCC)c2O)c1 (stereo not drawn) [Compound (15)] | 4.32 | B (B: 3.50≦ΔE<5.00) | 4.21 | B (B: 3.50≦ΔE<5.00) |  | 
CCCCC(CC)CN(CC(CC)CCCC)S(=O)(=O)c1ccc(/N=N/c2c(C)c(C#N)c(=O)n(N)c2O)cc1 (stereo not drawn) [Compound (23)] | 2.37 | A (A: ΔE<3.50) |  |  | 2.54 | A (A: ΔE<3.50)
CCCCC(CC)CN(CC(CC)CCCC)C(=O)c1ccc(/N=N/c2c(C)c(C#N)c(=O)n(N3CCCCC3)c2O)cc1 (stereo not drawn) [Compound (28)] | 1.64 | A (A: ΔE<3.50) |  |  | 2.32 | A (A: ΔE<3.50)
CCCCC(CC)CN(CC(CC)CCCC)S(=O)(=O)c1ccc(/N=N/c2c(C)c(C#N)c(=O)n(N(C)C(=O)C(C)(C)C)c2O)cc1 (stereo not drawn) [Compound (29)] | 3.77 | B (B: 3.50≦ΔE<5.00) |  |  | 2.56 | A (A: ΔE<3.50)
CCCCC(CC)CN(CC(CC)CCCC)C(=O)c1ccc(/N=N/c2c(C)c(C#N)c(=O)n(N(CCCC)CCCC)c2O)cc1 (stereo not drawn) [Compound (30)] | 2.44 | A (A: ΔE<3.50) |  |  | 4.89 | B (B: 3.50≦ΔE<5.00)
